Experiment [1] has as its system human breast malignant carcinoma cell line MCF-7. The class given is cell-based. Particulars: 24 hours, maximum 200 μg/ml. Here is the method:
(§1) The cytotoxic effects of the peptides on different human tumour cells were measured using the MTT colorimetric assay (Mosmann, 1983). […] Dissolved MIT is converted to an insoluble purple formazan by cleavage of the tetrazolium ring by dehydrogenase enzymes. This water insoluble formazan can be solubilized using isopropanol or other solvents and the dissolved material is measured spectrophotometrically. The absorbance was measured as a function of concentration of converted dye. The conversion of the soluble dye to the insoluble purple formazan is utilized in assays for measurement of cell proliferation. […] We used this assay to measure the degree of cell death caused by the peptides. MCF-7 was maintained in EMEM, A2058 in DMEM and […]-29 in RPMI-1640 medium supplemented with 10% heat inactivated […] and 1% L-glutamine-L-alanine in a humidified atmosphere of 5% CO2 at 37° C. The human embryonic fibroblast cell line, MRC-5 (which is normal fibroblasts), was cultured as a monolayer in MEM medium, under the same conditions as described for the tumour cell lines. Cells to be used in the assay were grown to a minimum of 75% confluency, trypsinated and split to single cell suspension, counted and centrifuged at 1500 rpm for 10 min. The cell pellet was resuspended to a concentration of 2×10^5 cells/ml (HT-29) or 1×10^5 (MRC-5, MCF7 and A2058) in DMEM without FBS and L-glutamine-L-alanine (assay-medium). All cell lines were routinely tested for mycoplasma infection using a PCR-based mycoplasma detection kit (MycoSensor PCR Assay Kit, Stratagene), following the supplier's instructions. All cell lines were mycoplasma free. The cytotoxicity was measured using the MTT method (Mosmann, 1983), with minor modifications. Different human tumour cells (1-2×10^5) were applied in 96-well culture plates in a volume of 100 μl DMEM medium and incubated at 37° C. for 24 hours. The medium was removed and the cells were treated with 100 μl of peptide solution (concentrations ranging from 0 to 200 μg/ml), diluted in a) RPMI-1640 medium supplemented with 5% heat inactivated FBS, or b) RPMI-1640 medium without FBS. The plates were incubated at 37° C. for 24 hours. Cells treated with Triton X-100 (1%) was used as positive control (100% killing) whereas cells plus medium only were used as negative control. […] A volume of 70 μl of the supernatant was then removed and […] (0.04 M HCl in isopropanol) added to each well. The plate was placed on a shaker for 1 hour at room temperature and read spectrophotometrically at 590 nm in a microtiter plate reader (DTX880 Multimode Detector, Beckman Coulter).

Experiment [2] has as its system human skin malignant melanoma cell line A2058. The class given is cell-based. As to conditions: 24 hours, maximum 200 μg/ml. The procedure:
as §1

The test system of experiment [3] is human embryonic lung fibroblast cell line MRC-5. In kind it is cell-based. As to conditions: normal fibroblasts, 24 hours, maximum 200 μg/ml. The procedure:
as §1

The subject of experiment [4] is human colorectal adenocarcinoma cell line HT-29. The class given is cell-based. As to conditions: 24 hours, maximum 200 μg/ml. Here is the method:
as §1

In experiment [5] the test system is S. aureus. The class given is cell-based, Staphylococcus aureus. As to conditions: lowest concentration causing optical density less than 50% of growth control. Here is the method: (§2) The Gram-negative bacteria Listonella (Vibrio) anguillarum, serotype O2 (FT 1801, also coded as AL 104/LFI 6004), originally isolated from Atlantic salmon by staff of the Norwegian Veterinary Institute (Oslo, Norway), Escherichia con (ATCC 25922), and the Gram-positive bacteria Staphylococcus aureus (ATCC 9144) and Corynebacterium glutamicum (ATCC 13032) were used as test organisms. All isolates were grown at room temperature in Mueller Hinton Broth (MBB; Difco Laboratories, Detroit, U.S.A).
(§3) The antibacterial activities of the obtained HPLC fractions were determined by continuous monitoring of bacterial growth with a Bioscreen C microbiology reader (Labsystems Oy, Helsinki, Finland). The test was performed in 100-well flat-bottomed honeycomb plates, in which […] of test fractions were incubated with 50 μl of a suspension of an actively growing culture of bacteria diluted to a starting concentration of 5×10^3 cells per well. The growth chamber was maintained at 20° C. during the incubation period. The absorbance was measured at 2 h intervals for 48 h by a turbidometric method with vertical light photometry and a wide band filter (420-580 nm), which is more insensitive to colour change in the sample compared to single wavelength detection. Cecropin P1(0.5 μg/ml) was used as a positive control during these experiments. Antibacterial activity was determined when the optical density (OD) of the growth control (bacteria plus water) reached an absorbance of approximately 0.3. Fractions were regarded as active when the OD was less than 50% of the growth control.
(§4) The polypeptides of the present invention were isolated and subsequently tested for activity. A serial dilution method was employed to examine the antibacterial activity of the peptides. Two Gram-negative bacteria, L. anguillarum and E. coli, and two Gram-positive bacteria, C. glutamicum and S. aureus, were chosen as test bacteria. The polypeptides of the present invention were active against both Gram-positive and Gram-negative bacteria (table 4).

The test system of experiment [6] is C. glutamicum. The class given is cell-based, Corynebacterium glutamicum. Particulars: lowest concentration causing optical density less than 50% of growth control. Here is the method: as §2, §3, §4
Experiment [7] deals with L. anguillarum. In kind it is cell-based, Listonella (Vibrio) anguillarum. As to conditions: lowest concentration causing optical density less than 50% of growth control. Here is the method:
as §2, §3, §4

Experiment [8] relates to E. coli. The class given is cell-based, Escherichia coli. As to conditions: lowest concentration causing optical density less than 50% of growth control. Here is the method:
as §2, §3, §4

The test system of experiment [9] is Escherichia coli, K15-58. In kind it is cell-based. As to conditions: clinical isolate; 37° C.; 3×10^6 cells per ml. Here is the method: (§5) The antibacterial activities of the different peptides were determined by continuous monitoring of bacterial growth with a Bioscreen C microbiology reader (Labsystems Oy, Helsinki, Finland). The test was performed in 100-well flat-bottomed honeycomb plates, in which 50 μl of test fractions were incubated with 50 μl of a suspension of an actively growing culture of bacteria diluted in Mueller Hinton medium to a starting concentration of 3×10^4 cells per ml. The Gram-negative bacteria, Listonella (Vibrio) anguillarum, serotype O2 (FT 1801, a fish pathogenic strain), Pseudomonas aeruginosa and E. coli (ATCC 25922), and the Gram-positive bacteria, C. glutamicum (ATCC 13032) and S. aureus (ATCC 9144), were chosen as test bacteria. The growth chamber was maintained at either 20 or 37° C. during the incubation period. The absorbance was measured at 2 h intervals for 48 h by a turbidometric method with vertical light photometry and a wide band filter (420-580 nm), which is more insensitive to color change in the sample compared to single wavelength detection. Antibacterial activity was determined when the optical density (OD) of the growth control (bacteria plus water) reached an absorbance of 0.3-0.4. Fractions were regarded as active when the OD was less than 50% of the growth control. Polymyxin B (Sigma, St. Louis, Mo., USA), Lactoferricin B, Cecropin P1 and Hyalophora cecropia Cecropin B were used as reference.
(§6) The antimicrobial molecules were also tested against drug resistant clinical isolates, such as the commonly encountered multi-resistant human pathogen S. aureus (MRSA) K15-64 and the glycopeptide (vancomycin)-resistant Enterococccus faecium (GREF) K9-28. The non-clinical isolates Escherichia coli (ATCC 25922), Pseudomonas aeruginosa (ATCC 27853), Corynebacterium glutamicum (ATCC 13032), and Staphylococcus aureus (ATCC 9144) were also tested for comparison. Serial dilutions of synthetic peptides were made in double distilled water and tested according to the method described above. However, in these experiments the starting concentration of bacteria were 3×10^6 cells per ml and the temperature in the growth chamber was 37° C. Polymyxin B was used as positive control for the Gram-negative bacteria.

Experiment [10] has as its system Klebsiella K15-72. In kind it is cell-based. Particulars: clinical isolate; 37° C.; 3×10^6 cells per ml. Here is the method: as §5, §6
The subject of experiment [11] is Citrobacter freundii, K15-75. In kind it is cell-based. Particulars: clinical isolate; 37° C.; 3×10^6 cells per ml. The procedure: as §5, §6
The test system of experiment [12] is Pseudomonas K15-60. The class given is cell-based. As to conditions: clinical isolate; 37° C.; 3×10^6 cells per ml. The procedure: as §5, §6
Experiment [13] has as its system Salmonella K14-40. In kind it is cell-based. As to conditions: clinical isolate; 37° C.; 3×10^6 cells per ml. The procedure: as §5, §6
Experiment [14] deals with Acinetobacter baumannilii, K15-9. The class given is cell-based. As to conditions: clinical isolate; 37° C.; 3×10^6 cells per ml. Here is the method: as §5, §6
Setting [15] is: RPMI-1640 medium containing 5% FBS.

Values after ≈ are worked out from the molar mass of the structure shown. Where two headings read alike, the source gives them in different places. No end group written: not given here.

As to `NC(Cc1c[nH]c2ccc(Br)cc12)C(=O)O` [5-D/L-Br-Trp, 5-Bromo-D/L-tryptophan, reference compound], the “Antitumoral activity IC50, MCF-7” value in experiment [1] (setting [15]) and in experiment [1] (serum-free RPMI-1640 medium) was “— (The symbol “—” denotes no activity within the concentration range tested.)” in each case. Besides, the “Antitumoral activity IC50, A2058” value in [2] (setting [15]) and in experiment [2] (serum-free RPMI-1640 medium) was “— (The symbol “—” denotes no activity within the concentration range tested.)” each time. In addition, the “IC50, MRC-5” value in experiment [3] (setting [15]) and in experiment [3] (serum-free RPMI-1640 medium) was “* (The symbol “*” denotes 30-50% killing at the highest concentration tested.)” throughout. Moreover, the entries for the “Antitumoral activity IC50, HT-29” value in experiment [4] (setting [15]) and in [4] (serum-free RPMI-1640 medium) were “— (The symbol “—” denotes no activity within the concentration range tested.)” and “* (The symbol “*” denotes 30-50% killing at the highest concentration tested.)”, respectively.
On to `NC(Cc1c[nH]c2cc(Br)ccc12)C(=O)O` [6-D/L-Br-Trp, 6-Bromo-D/L-tryptophan, reference compound], for which the “Antitumoral activity IC50, MCF-7” value in experiment [1] (setting [15]) and in [1] (serum-free RPMI-1640 medium) was “* (The symbol “*” denotes 30-50% killing at the highest concentration tested.)” throughout. Moreover, the “Antitumoral activity IC50, A2058” value in [2] (setting [15]) was “* (The symbol “*” denotes 30-50% killing at the highest concentration tested.)”. Besides, the half-inhibitory concentration (IC50) in [2] (serum-free RPMI-1640 medium, read-out: Antitumoral activity IC50, A2058) was 655 µM; in experiment [3] (serum-free RPMI-1640 medium, read-out: IC50, MRC-5), 584 µM. In addition, in experiment [3] (setting [15]), the “IC50, MRC-5” value is given as “* (The symbol “*” denotes 30-50% killing at the highest concentration tested.)”. Besides, the “Antitumoral activity IC50, HT-29” value in experiment [4] (setting [15]) and in [4] (serum-free RPMI-1640 medium) was “* (The symbol “*” denotes 30-50% killing at the highest concentration tested.)” each time.
Take `CC[C@H](C)[C@@H]1NC(=O)[C@H](CO)NC(=O)[C@@H]2CCCN2C(=O)[C@H](C)NC(=O)CNC(=O)[C@H](CC(C)C)NC(=O)[C@H](CCCCN)NC(=O)[C@H](CCCCN)NC(=O)[C@H](CCSC)NC(=O)[C@H](CCCNC(=N)N)NC(=O)[C@H](Cc2c[nH]c3ccccc23)NC(=O)[C@H](CCC(N)=O)NC(=O)[C@H](Cc2c[nH]c3ccccc23)NC(=O)[C@H](CCCNC(=N)N)NC(=O)[C@H](CCCNC(=N)N)NC(=O)[C@@H](NC(=O)[C@H](CCCCN)NC(=O)[C@@H](N)Cc2ccccc2)CSSC[C@@H](C(=O)N[C@H](C(=O)N[C@@H](CCCNC(=N)N)C(=O)N[C@@H](CCCNC(=N)N)C(=O)N[C@@H](C)C(=O)N[C@@H](Cc2ccccc2)C(=O)O)C(C)C)NC(=O)[C@H]([C@@H](C)O)NC1=O` [Lactoferricin B]: in [5], the “Minimal inhibitory concentration (MIC), S. aureus” value was 6.3 µM (≈ 19.7 µg/mL). In experiment [6], the “Minimal inhibitory concentration (MIC), C. glutamicum” value turned out to be 1.6 µM (≈ 5 µg/mL). In experiment [7], the “Minimal inhibitory concentration (MIC), L. anguillarum” value came to 3.1 µM (≈ 9.68 µg/mL). In addition, the “Minimal inhibitory concentration (MIC), E. coli” value in experiment [8] was found to be 3.1 µM (≈ 9.68 µg/mL).
As to “P20: dimeric polypeptide from S. droebachiensis coelomocytes: first monomer SEQIDNO7, second monomer SEQIDNO8 (chain 1 SXFSRTVHNVGNAVRKGIHAGQGVCSGLGL; chain 2 DLRAICAGAHAL; not fully specified (bridges); X: residue not identified in the source; cysteine pairing not given here; also: heterodimer of two chains; listed as Strongylocentrotus droebachiensis) [Peptide P20]”, the “Minimal inhibitory concentration (MIC), S. aureus” value in experiment [5] was found to be 5.0 µM. Further, in experiment [6], the “Minimal inhibitory concentration (MIC), C. glutamicum” value is 1.3 µM. The “Minimal inhibitory concentration (MIC), L. anguillarum” value in [7] stood at 2.5 µM. In [8], the “Minimal inhibitory concentration (MIC), E. coli” value amounted to 2.5 µM.
Take Polymyxin B [reference compound]: the “Minimal inhibitory concentration (MIC), S. aureus” value in experiment [5] was found to be 6.3 µM. Also, the “Minimal inhibitory concentration, Escherichia coli, K15-58” value in [9] worked out at 3.12 µM. Besides, in experiment [10], the “Minimal inhibitory concentration, Klebsiella K15-72” value was 6.25 µM. Moreover, in [11], the “Minimal inhibitory concentration, Citrobacter freundii, K15-75” value came out at 0.78 µM. The “Minimal inhibitory concentration, Pseudomonas K15-60” value in experiment [12] worked out at 3.12 µM. For the same compound, the “Minimal inhibitory concentration, Salmonella K14-40” value in [13] stood at 3.12 µM. For the same compound, in [14], the “Minimal inhibitory concentration, Acinetobacter baumannilii, K15-9” value was 0.78 µM. The “Minimal inhibitory concentration (MIC), C. glutamicum” value in experiment [6] amounted to 1.6 µM. Moreover, the “Minimal inhibitory concentration (MIC), L. anguillarum” value in [7] came to 0.8 µM. Also, the “Minimal inhibitory concentration (MIC), E. coli” value in experiment [8] amounted to 0.8 µM.

The values are drawn from patent US20100093642A1, “NOVEL POLYPEPTIDES” (priority 2006, published 2010).
